One block for each compound: values may come before it.
How the values were obtained:
[1] = Saturated solubility of Milrinone in different buffers; assay type: physicochemical; settings: pH 1.2 to 7.4 buffers
Description: Aim: To perform the saturated solubility of Milrinone in different buffers.
1. pH 1.2—Hydrochloric Acid Buffer
3. pH 6.8—Phosphate Buffer
4. pH 7.4—Phosphate Buffer.
• 1. 2 mL buffer solution is placed into a 8 mL USP Type I clear glass vial (with screw cap and PTFE septa) • 2. 10 mg of Milrinone is added in each vial and the vial is shaken to dissolve the compound. • 3. The addition of Milrinone is continued till the formation of saturated solution. • 4. The pH of the saturated solution is measured after the addition of Milrinone. • 5. If there is any difference in pH more than 0.1 units is observed when compared to the initial pH, the pH was adjusted with acid or base respectively to bring it to the initial pH. • 6. The vials are closed with screw cap and kept for mixing using rotary tube shaker for 24 h. Note: The vials are observed at frequent intervals and if the solution is clear, further amount of Milrinone is added to make a saturated solution.

HFpEF patients [2] = settings: cited from earlier work
HFpEF = settings: in vivo; cited from earlier work
HFpEF patients [3] = settings: cited from earlier work; remark: listed apart in the source
HFpEF patients [4] = settings: cited from earlier work; remark: listed apart in the source

Solubility as a function of pH (in words) [1]: highly soluble in acidic pH
Compound: Cc1[nH]c(=O)c(C#N)cc1-c1ccncc1 [Milrinone, 1,2-dihydro-3-cyano-6-methyl-5-(4-pyridinyl)-2(1H)-pyridinone]

Compound: COc1ccccc1OCC(O)CN1CCN(CC(=O)Nc2c(C)cccc2C)CC1 (stereo not drawn) [Ranolazine]
Echocardiographic parameters or exercise performance (HFpEF patients [2]): did not result in a change

Compound: C[C@H]1O[C@@H](O[C@H]2[C@@H](O)C[C@H](O[C@H]3[C@@H](O)C[C@H](O[C@H]4CC[C@@]5(C)[C@H](CC[C@@H]6[C@@H]5C[C@@H](O)[C@]5(C)[C@@H](C7=CC(=O)OC7)CC[C@]65O)C4)O[C@@H]3C)O[C@@H]2C)C[C@H](O)[C@@H]1O [digoxin]
Benefit as therapy for HFpEF (HFpEF): little or no conclusive benefit

Compound: CCCc1nn(C)c2c(=O)[nH]c(-c3cc(S(=O)(=O)N4CCN(C)CC4)ccc3OCC)nc12 [sildenafil]
Exercise capacity or clinical status (HFpEF patients [3]): did not result in improvement

Compound: CC(=O)S[C@@H]1CC2=CC(=O)CC[C@]2(C)[C@H]2CC[C@@]3(C)[C@@H](CC[C@@]34CCC(=O)O4)[C@H]12 [spironolactone]
Left ventricular diastolic function (HFpEF patients [4]): improved left ventricular diastolic function
Maximal exercise capacity, patient symptoms or quality of life (HFpEF patients [4]): did not affect
